Reference: PMC7732128, “Regulation of gene transcription by thyroid hormone receptor β agonists in clinical development for the treatment of non-alcoholic steatohepatitis (NASH)” (PLoS ONE, 2020)
Like-named read-outs stand apart in the source and are kept apart here.

Key:
[1] = tested on: THR (ANGPTL4, CPT1A, DIO1 RNA in Huh-7 cells); assay: Differential gene expression assay in Huh-7 cells; assay type: cell-based, human; details: for EC50: Homo sapiens; for fold less potent than T3: CPT1A transcription in Huh-7
Procedure: Hepatoma-derived Huh-7 cells (JCRB Cell Bank, JCRB0403) were obtained directly from the repository, which performed cell line authentication via isozyme analysis and comprehensively tested for microbial contamination, viral contamination, and cross culture contamination. Cells were routinely cultured in DMEM (Corning, 10-013-CM) supplemented with 10% FBS and 1% P/S at 37°C and 5% CO2 until 80–90% confluency. Cells were then detached with 0.05% trypsin (Corning, 25-052-CV), resuspended in TH-free medium (DMEM supplemented with 10% TH-depleted FBS and 1% P/S), and seeded into collagen-coated, 96-well microplates (Corning, 354407) at 5.0 x 10^4 cells/well. After 24 hrs, the culture medium was replaced with treatment media. Cells were treated for 24 hrs. TH-depletion of the FBS via resin treatment was accomplished as previously described. All treatment media were made by mixing test compounds, serially diluted in DMSO, with TH-free medium (0.1% final DMSO concentration).
After 24 hrs in treatment media, both Huh-7 cells and PHH were processed with the TaqMan Fast Advanced Cells-to-Ct Kit (Invitrogen, A35378), according to the manufacturer’s protocol. Briefly, the treatment media was removed and the cells were washed with 50 μL cold 1X phosphate-buffered saline (Corning, 21-040-CM). Fifty μL lysis buffer containing DNase I was added to each well and the plate was incubated on a rotor at RT for 5 mins. Five μL stop solution was then added to each well and after another 2 mins incubation on a rotor at RT, the cell lysates were used for reverse transcription. The resulting cDNA was diluted 1:2 with nuclease-free, distilled water (Invitrogen, 10977015). Gene expression was measured using TaqMan Fast Advanced Master Mix (Applied Biosystems, 4444964) and the following TaqMan Gene Expression assays (Applied Biosystems, 4331182): 18S (Hs99999901_s1), ACTB (Hs01060665_g1), ANGPTL4 (Hs01101123_g1), CPT1A (Hs00912671_m1), DIO1 (Hs00174944_m1), TFG (Hs02832013_g1), THRA (Hs00268470_m1), and THRB (Hs00230861_m1). ACTB and TFG served as control housekeeping genes for Huh-7 assays and 18S and ACTB for PHH assays. Ten μL reactions were run on the qTOWER³ 84 (Analytik Jena). Relative quantification (RQ) of gene expression was calculated via the 2^−ΔΔCt method and dose-response curves were fitted by non-linear regression with variable slope. Statistical analysis was performed in GraphPad Prism 8.
We aimed to develop an in vitro, cell-based assay that is not only amenable to high throughput screening of compounds, but that can also more reliably recapitulate in vivo processes. Because activated THR may function as a transcription factor, we compared the action of THR agonists in a human hepatocyte-derived cell line and in primary human hepatocytes (PHH) by quantifying transcriptional changes resulting from compound treatment (Fig 2A). Cells were cultured in TH-depleted media for 24 hrs and then treated with compounds for 24 hrs. The RNA levels of THR target genes were then measured via RT-qPCR.

[2] = tested on: THR (THRSP RNA in PHH); assay: Differential gene expression assay in primary human hepatocytes (PHH); assay type: cell-based; details: Hepatocyte, RT-qPCR, 24 hrs treatment, read-out: PHH EC50 Mean ± SEM
[3] = target: T1, GST-tagged THRβ LBD (Homo sapiens, UniProt P10828); assay: TR-FRET thyroid hormone receptor coactivator assay, THRβ; assay type: biochemical; details: for EC50: read-out: THRβ EC50 Mean ± SEM
T1 construct: purchased Invitrogen PV4686
T1 sequence (P10828 217-461 limits assumed): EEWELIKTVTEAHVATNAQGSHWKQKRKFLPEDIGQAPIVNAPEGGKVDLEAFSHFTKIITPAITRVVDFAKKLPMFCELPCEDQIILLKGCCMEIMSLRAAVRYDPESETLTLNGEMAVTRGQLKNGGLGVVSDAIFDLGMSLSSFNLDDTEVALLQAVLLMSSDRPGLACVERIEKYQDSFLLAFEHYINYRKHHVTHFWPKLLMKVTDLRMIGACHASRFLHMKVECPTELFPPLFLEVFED
Source text: A time-resolved FRET (TR-FRET)-based, biochemical assay was used as an initial screen to assess the ability of compounds to bind either THRα or β in vitro. […] Upon excitation of the terbium-labeled anti-GST antibody, energy is transferred to the fluorescein-labeled coactivator peptide and is detected as emission at 520 nm.
The assay procedure is based on the manufacturer’s protocol for LanthaScreen™ TR-FRET Thyroid Receptor beta Coactivator Assay (Invitrogen, PV4686) with slight, optimized modifications. Briefly, the assay was performed in 384-well, black microplate plates, protected from light. Test compounds were serially diluted in DMSO (1.0% final DMSO concentration) and added to the test plate. GST-tagged THRα or β LBD was added to the plate to yield a final concentration of 1.0 nM, followed by a mixture of the fluorescein-labeled SRC2-2 coactivator peptide and terbium-labeled anti-GST antibody at the final concentrations of 200.0 nM and 2.0 nM, respectively. […] Statistical analysis was performed in GraphPad Prism 8.0.
In the TR-FRET thyroid hormone receptor coactivator assay, increasing concentrations of each compound was combined with the GST-tagged LBD of THRα or β, a coactivator peptide, and terbium-labeled anti-GST antibody. TR-FRET was then measured and dose-response curves were generated. In the luciferase reporter assay, HEK293T cells were transfected with a firefly luciferase reporter plasmid under the control of the TRE-Luc, a RXR expression plasmid, and either a THRα or β expression plasmid. The cells were then treated with increasing concentrations of each compound. Luminescence was measured and dose-response curves were generated. For both assays, calculated EC50 means ± SEM, n, and THRα EC50-to-THRβ EC50 ratios (α:β) are reported for each compound-THR subtype combination.

[4] = Huh-7, CPT1A RNA, RT-qPCR, 24 hrs treatment, read-out: Huh-7 EC50 Mean ± SEM

SMILES | EC50 [1, 4] | EC50 ([1]; Huh-7, 24 hrs, n = 2 (Fig 2C), read-out: mean EC50, ANGPTL4) | EC50 ([1]; Huh-7, 24 hrs, n = 2 (Fig 2C), read-out: mean EC50, CPT1A) | EC50 ([1]; Huh-7, 24 hrs, n = 2 (Fig 2C), read-out: mean EC50, DIO1) | EC50 [2] | fold less potent than T3 [1] | times weaker than VK2809A ([1]; Huh-7 assay) | α:β (THRα EC50-to-THRβ EC50 ratio) [3] | EC50 [3]
Cc1cc(OCP2(=O)OCC[C@@H](c3cccc(Cl)c3)O2)cc(C)c1Cc1ccc(O)c(C(C)C)c1 (stereo partly shown) [VK2809] | 589 ± 120 nM | – | – | – | 18.7 ± 8.9 nM | ~2,000 fold | 71 times | 0.6 | 460 ± 163 nM
Cc1cc(OCP(=O)(O)O)cc(C)c1Cc1ccc(O)c(C(C)C)c1 [VK2809A] | 8.3 ± 2.2 nM | – | – | – | 14.8 ± 10.7 nM | approximately 30 fold | – | 2.5 | 10.1 ± 2.7 nM
